From ChEMBL document CHEMBL4177659, “Two new dammarane-type triterpene saponins from Korean red ginseng and their anti-inflammatory effects” (Bioorg Med Chem Lett, 2017)
Active and inactive are the calls of the source.

Tests used:
Assay type in all cases: functional, cell-based
RAW264.7 [1] = experiment: Antiinflammatory activity against mouse RAW264.7 cells assessed as inhibition of LPS induced cox-2 expression at 20 uM preincubated for 2 hrs followed by LPS challenge measured after 24 hrs by Western blot method
RAW264.7 [2] = experiment: Antiinflammatory activity against mouse RAW264.7 cells assessed as inhibition of LPS induced iNOS expression at 20 uM preincubated for 2 hrs followed by LPS challenge measured after 24 hrs by Western blot method
RAW264.7 [3] = experiment: Antiinflammatory activity against mouse RAW264.7 cells assessed as inhibition of LPS induced IL-6 release 10 uM preincubated for 2 hrs followed by LPS challenge measured after 24 hrs by sandwich ELISA
RAW264.7 [4] = experiment: Antiinflammatory activity against mouse RAW264.7 cells assessed as inhibition of LPS induced TNFalpha release preincubated for 2 hrs followed by LPS challenge measured after 24 hrs by sandwich ELISA
RAW264.7 [5] = experiment: Antiinflammatory activity against mouse RAW264.7 cells assessed as inhibition of LPS induced cox-2 expression at 10 uM preincubated for 2 hrs followed by LPS challenge measured after 24 hrs by Western blot method
RAW264.7 [6] = experiment: Antiinflammatory activity against mouse RAW264.7 cells assessed as inhibition of LPS induced iNOS expression at 10 uM preincubated for 2 hrs followed by LPS challenge measured after 24 hrs by Western blot method

Measured: Activity

Cc1ccc(-c2cc(C(F)(F)F)nn2-c2ccc(S(N)(=O)=O)cc2)cc1
active: RAW264.7 [1] | RAW264.7 [2]

CC(C)=CCC[C@@](C)(O)[C@H]1CC[C@]2(C)[C@@H]1[C@H](O)C[C@@H]1[C@@]3(C)CCC(=O)C(C)(C)[C@@H]3[C@@H](O[C@@H]3O[C@H](CO)[C@@H](O)[C@H](O)[C@H]3O)C[C@]12C
active: RAW264.7 [3] | RAW264.7 [4] Dose-dependent effect | RAW264.7 [5] | RAW264.7 [6]
